Key:
[1] = tested on: weeds; assay: Postemergence control, summary statement; type: in vivo; conditions: 3000 ppm
Experimental: (§1) To illustrate the effectiveness of the Compounds 1 and 2 of this invention as preemergence herbicides, 300 mg of each compound were dissolved in 10 ml acetone to which 30 mg of an emulsifying agent, ethoxylated sorbitan monolaurate, were added. The solution was diluted to 100 ml with distilled water. Ten milliliters of the 3000 ppm solution were diluted to 250 ppm with distilled water. The chemical was applied at the rate of 10 lb/A (11.2 kg/ha) by drenching 46 ml of the 250 ppm solution on the surface of soil in 41/2inch (11.25 cm) plastic pots wherein seeds of the following weeds had been planted: velvet leaf (Abutilon theoohrasti Medic.) (VL), prickly sida (sida soinosa L.) (PS), tall morningglory (Ioomea purourea L. Roth) (TM), switchgrass (Panicum viroatum L.) (SG), barnyard grass (Echinolchloa crus-oalli (L.) Beauv.) (BG), and green foxtail (Setaria viridis) (L.) Beauv.) (GF). The percent control of the weeds compared to untreated checks was determined two weeks after treatment.
(§2) To test the effectiveness of Compounds 1 and 2 of this invention as postemergence herbicides, a 3000 ppm solution of each compound (produced in accordance with the process described under Example 3) was atomized employing a DEVILBISS [trademark] sprayer, wetting the foliage to the drip point. […] The percent weed control was evaluated two weeks after treatment.

[2] = tested on: tall morningglory; assay: Preemergence control of tall morningglory (Table I); type: in vivo, Ioomea purourea L. Roth; conditions: 11.2 kg/ha, two weeks after treatment
Experimental: as §1

[3] = tested on: cotton; assay: Postemergence selectivity, greenhouse: cotton injury (Table V); type: in vivo; conditions: 2 weeks
Experimental: (§3) To illustrate the effectiveness of Compound 1 of this invention as a corn-safe selective postemergence herbicide, the 3000 ppm solution prepared as described in Example 3 was diluted with distilled water to 250 ppm and applied to foliage as described in Example 3. The commercial product Hoelon 3EC® (Hoechst) was included as a standard. The foliage included weedy grasses described in Example 3 in addition to the crops corn, soybeans and cotton. The foliage was planted in a Connecticut greenhouse on May 16, and was treated on May 26. The percent weed control and crop injury was determined on Jun. 12.
(§4) To illustrate the effectiveness of Compound 2 of this invention as a corn-safe selective postemergence herbicide, various concentrations of the compound were prepared and applied as in Example 5 to the following weeds and crops: velvet leaf (Abutilon theoohrasti Medic.) (VL), prickly sida (Sida spinosa L.) (PS), wild morningglory (Ipomopa sp.) (WM), barnyard grass (Echinolchloa crus-galli (L.) Beauv.) (BG), green foxtail (Setaria viridis) (L.) Beauv.) (GF), wild oat (Avena fatua L.) (WO), corn (CR), soybean (SO), cotton (CT) and rice (RC). The weeds and crops were planted in mid-September in a Connecticut greenhouse and were treated eight days later. The percent weed control and crop injury was determined 2 weeks after treatment.

[4] = tested on: green foxtail; assay: Postemergence selectivity, greenhouse: green foxtail (Table V); type: in vivo, Setaria viridis (L.) Beauv.; conditions: 2 weeks
Experimental: as §3, §4

[5] = tested on: barnyard grass; assay: Postemergence selectivity, greenhouse: barnyard grass (Table V); type: in vivo, Echinolchloa crus-galli (L.) Beauv.; conditions: 2 weeks
Experimental: as §3, §4

[6] = tested on: switchgrass; assay: Preemergence control of switchgrass (Table I); type: in vivo, Panicum viroatum L.; conditions: 11.2 kg/ha, two weeks after treatment
Experimental: as §1

[7] = tested on: prickly sida; assay: Preemergence control of prickly sida (Table I); type: in vivo, sida soinosa L.; conditions: 11.2 kg/ha, two weeks after treatment
Experimental: as §1

[8] = tested on: wild morningglory; assay: Postemergence selectivity, greenhouse: wild morningglory (Table V); type: in vivo, Ipomopa sp.; conditions: 2 weeks
Experimental: as §3, §4

[9] = tested on: grass weeds; assay: Postemergence selectivity greenhouse (Example 7), summary for grass weeds; type: in vivo; conditions: 1000 to 3000 ppm
Experimental: as §3, §4

[10] = tested on: rice; assay: Postemergence selectivity, greenhouse: rice injury (Table V); type: in vivo; conditions: 2 weeks
Experimental: as §3, §4

[11] = tested on: prickly sida; assay: Postemergence control of prickly sida (Table II); type: in vivo, sida soinosa L.; conditions: 3000 ppm, two weeks after treatment
Experimental: as §1, §2

[12] = tested on: green foxtail; assay: Postemergence control of green foxtail (Table II); type: in vivo, Setaria viridis (L.) Beauv.; conditions: 3000 ppm, two weeks after treatment
Experimental: as §1, §2

[13] = tested on: soybean; assay: Postemergence selectivity, greenhouse: soybean injury (Table V); type: in vivo; conditions: 2 weeks
Experimental: as §3, §4

[14] = tested on: weeds; assay: Preemergence control, summary statement; type: in vivo; conditions: 11.2 kg/ha
Experimental: as §1

[15] = tested on: barnyard grass; assay: Preemergence control of barnyard grass (Table I); type: in vivo, Echinolchloa crus-oalli (L.) Beauv.; conditions: 11.2 kg/ha, two weeks after treatment
Experimental: as §1

[16] = tested on: barnyard grass; assay: Postemergence control of barnyard grass (Table II); type: in vivo, Echinolchloa crus-oalli (L.) Beauv.; conditions: 3000 ppm, two weeks after treatment
Experimental: as §1, §2

[17] = tested on: prickly sida; assay: Postemergence selectivity, greenhouse: prickly sida (Table V); type: in vivo, Sida spinosa L.; conditions: 2 weeks
Experimental: as §3, §4

[18] = tested on: tall morningglory; assay: Postemergence control of tall morningglory (Table II); type: in vivo, Ioomea purourea L. Roth; conditions: 3000 ppm, two weeks after treatment
Experimental: as §1, §2

[19] = tested on: switchgrass; assay: Postemergence control of switchgrass (Table II); type: in vivo, Panicum viroatum L.; conditions: 3000 ppm, two weeks after treatment
Experimental: as §1, §2

[20] = tested on: velvet leaf; assay: Postemergence selectivity, greenhouse: velvet leaf (Table V); type: in vivo, Abutilon theoohrasti Medic.; conditions: 2 weeks
Experimental: as §3, §4

[21] = tested on: corn; assay: Postemergence selectivity, greenhouse: corn injury (Table V); type: in vivo; conditions: for Percent crop injury CR: postemergence, 2 weeks
Experimental: as §3, §4

[22] = tested on: velvet leaf; assay: Preemergence control of velvet leaf (Table I); type: in vivo, Abutilon theoohrasti Medic.; conditions: 11.2 kg/ha, two weeks after treatment
Experimental: as §1

[23] = tested on: wild oat; assay: Postemergence selectivity, greenhouse: wild oat (Table V); type: in vivo, Avena fatua L.; conditions: 2 weeks
Experimental: as §3, §4

[24] = tested on: velvet leaf; assay: Postemergence control of velvet leaf (Table II); type: in vivo, Abutilon theoohrasti Medic.; conditions: 3000 ppm, two weeks after treatment
Experimental: as §1, §2

[25] = tested on: green foxtail; assay: Preemergence control of green foxtail (Table I); type: in vivo, Setaria viridis (L.) Beauv.; conditions: 11.2 kg/ha, two weeks after treatment
Experimental: as §1

Question: `CC(C#N)Oc1ccc(Oc2cnc3cc(Cl)ccc3n2)cc1` (stereo not shown) [Compound 2, 2-[4-(6-chloro-2-quinoxalinyloxy)phenoxy]propionitrile] was tested. Which “postemergent herbicidal control” value [1] did it give?
Answer: desirable postemergent herbicidal control

Question: And the “% Control TM” value [2]?
Answer: 0%

Question: And the “Percent crop injury CT” value ([3]; 1000 ppm)?
Answer: 20%

Question: What about the “Percent crop injury CT” value ([3]; 2000 ppm) of the same compound?
Answer: 20%

Question: And the “Percent crop injury CT” value ([3]; 3000 ppm)?
Answer: 20%

Question: What about the “Percent Weed Control GF” value ([4]; 1000 ppm) of the same compound?
Answer: 100%

Question: What about the “Percent Weed Control GF” value ([4]; 2000 ppm) of the same compound?
Answer: 100%

Question: What about the “Percent Weed Control GF” value ([4]; 3000 ppm) of the same compound?
Answer: 100%

Question: And the “Percent Weed Control BG” value ([5]; 1000 ppm)?
Answer: 85%

Question: What about the “Percent Weed Control BG” value ([5]; 2000 ppm) of the same compound?
Answer: 85%

Question: What about the “Percent Weed Control BG” value ([5]; 3000 ppm) of the same compound?
Answer: 95%

Question: What about the “% Control SG” value [6] of the same compound?
Answer: 100%

Question: What about the “% Control PS” value [7] of the same compound?
Answer: 0%

Question: What about the “Percent Weed Control WM” value ([8]; 1000 ppm) of the same compound?
Answer: 10%

Question: What about the “Percent Weed Control WM” value ([8]; 2000 ppm) of the same compound?
Answer: 10%

Question: What about the “Percent Weed Control WM” value ([8]; 3000 ppm) of the same compound?
Answer: 20%

Question: What about the “control of several grass weeds” value [9] of the same compound?
Answer: good control of several grass weeds

Question: And the “Percent crop injury RC” value ([10]; 1000 ppm)?
Answer: 50%

Question: What about the “Percent crop injury RC” value ([10]; 2000 ppm) of the same compound?
Answer: 50%

Question: What about the “Percent crop injury RC” value ([10]; 3000 ppm) of the same compound?
Answer: 50%

Question: And the “% Control PS” value [11]?
Answer: 75%

Question: And the “% Control GF” value [12]?
Answer: 95%

Question: And the “Percent crop injury SO” value ([13]; 1000 ppm)?
Answer: 20%

Question: What about the “Percent crop injury SO” value ([13]; 2000 ppm) of the same compound?
Answer: 20%

Question: What about the “Percent crop injury SO” value ([13]; 3000 ppm) of the same compound?
Answer: 20%

Question: And the “herbicidal efficacy” value [14]?
Answer: good to excellent herbicidal efficacy

Question: What about the “% Control BG” value [15] of the same compound?
Answer: 50%

Question: What about the “% Control BG” value [16] of the same compound?
Answer: 65%

Question: And the “Percent Weed Control PS” value ([17]; 1000 ppm)?
Answer: 0%

Question: What about the “Percent Weed Control PS” value ([17]; 2000 ppm) of the same compound?
Answer: 0%

Question: And the “Percent Weed Control PS” value ([17]; 3000 ppm)?
Answer: 0%

Question: What about the “% Control TM” value [18] of the same compound?
Answer: 55%

Question: What about the “% Control SG” value [19] of the same compound?
Answer: 35%

Question: What about the “Percent Weed Control VL” value ([20]; 1000 ppm) of the same compound?
Answer: 90%

Question: And the “Percent Weed Control VL” value ([20]; 2000 ppm)?
Answer: 90%

Question: What about the “Percent Weed Control VL” value ([20]; 3000 ppm) of the same compound?
Answer: 90%

Question: What about the “Percent crop injury CR” value ([21]; 1000 ppm) of the same compound?
Answer: 0%

Question: And the “corn safety” value ([21]; 1000 to 3000 ppm)?
Answer: substantially innocuous to corn

Question: And the “Percent crop injury CR” value ([21]; 2000 ppm)?
Answer: 0%

Question: And the “Percent crop injury CR” value ([21]; 3000 ppm)?
Answer: 0%

Question: And the “% Control VL” value [22]?
Answer: 0%

Question: What about the “Percent Weed Control WO” value ([23]; 1000 ppm) of the same compound?
Answer: 0%

Question: And the “Percent Weed Control WO” value ([23]; 2000 ppm)?
Answer: 0%

Question: And the “Percent Weed Control WO” value ([23]; 3000 ppm)?
Answer: 10%

Question: And the “% Control VL” value [24]?
Answer: 95%

Question: And the “% Control GF” value [25]?
Answer: 25%
